Experimental data from the supplement of paper PMC10307832.

compound: CC1=C(N=C(N=C1N)[C@H](CC(=O)N)NC[C@@H](C(=O)N)N)C(=O)N[C@@H]([C@H](C2=CN=CN2)OC3C(C(C(C(O3)CO)O)O)OC4C(C(C(C(O4)CO)O)OC(=O)N)O)C(=O)N[C@H](C)[C@H]([C@H](C)C(=O)N[C@@H]([C@@H](C)O)C(=O)NCCC5=NC(=CS5)C6=NC(=CS6)C(=O)NCCC[S+](C)C)O [Bleomycin] + Nc1nc2[nH]cc(CCc3ccc(C(=O)N[C@@H](CCC(=O)O)C(=O)O)cc3)c2c(=O)[nH]1 [Pemetrexed] (partner 0.2 µM); assay: relative viability (nuclei count vs DMSO), 5 days (fraction); higher = more cells survive; details: first compound 0.01 µM; main component drawn
Summary of the method: (§1)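 Relative viability was taken as the ratio of nuclei in treated wells to nuclei in vehicle wells. Lung cancer cell lines in 1536-well plates received compounds by pin tool one day after seeding, either one drug alone or a fixed anchor-drug dose plus five library-drug doses (not always all listed) in √10 steps. Nuclei were counted on 4× images after 5 days of treatment, and values are medians of duplicate plates.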

Cell Line	relative viability
COR-L 105	0.949
LOU-NH91	0.423
ChaGo-K-1	0.267
NCI-H3122	0.214
HOP-62	0.277
LU99A	0.158
BEN	0.809
HARA	0.219
HCC-78	0.895
NCI-H441	0.248
LCLC-97TM1	0.169
NCI-H2009	0.889
A-427	0.875
NCI-H460	0.0698
NCI-H1734	0.392
NCI-H520	0.731
NCI-H2405	0.955
SW 1573	0.755
201T	0.332
NCI-H1915	0.428
HCC-827	0.252
LXF-289	0.852
NCI-H2347	0.401
NCI-H650	0.708
CAL-12T	0.729
NCI-H1651	0.629
EPLC-272H	0.294

same assay, conditions: first compound 0.03162 µM; main component drawn

Cell Line	relative viability
COR-L 105	1.06
LOU-NH91	0.38
ChaGo-K-1	0.251
NCI-H3122	0.205
HOP-62	0.361
LU99A	0.157
BEN	0.757
HARA	0.228
HCC-78	0.969
NCI-H441	0.251
LCLC-97TM1	0.165
NCI-H2009	1.03
A-427	0.917
NCI-H460	0.0674
NCI-H1734	0.406
NCI-H520	0.757
NCI-H2405	0.974
SW 1573	0.691
201T	0.283
NCI-H1915	0.394
LXF-289	0.901
NCI-H2347	0.427
NCI-H650	0.951
CAL-12T	0.482
NCI-H1651	0.501
EPLC-272H	0.198

same assay, conditions: first compound 0.1 µM; main component drawn

Cell Line	relative viability
COR-L 105	0.971
LOU-NH91	0.368
ChaGo-K-1	0.245
NCI-H3122	0.201
HOP-62	0.303
LU99A	0.159
BEN	0.723
HARA	0.237
HCC-78	0.88
NCI-H441	0.267
LCLC-97TM1	0.189
NCI-H2009	1.04
A-427	0.868
NCI-H460	0.0717
NCI-H1734	0.383
NCI-H520	0.653
NCI-H2405	0.919
SW 1573	0.572
201T	0.303
NCI-H1915	0.31
HCC-827	0.25
LXF-289	0.845
NCI-H2347	0.435
NCI-H650	0.78
CAL-12T	0.31
NCI-H1651	0.433
EPLC-272H	0.146

same assay, conditions: first compound 0.3162 µM; main component drawn

Cell Line	relative viability
COR-L 105	0.468
LOU-NH91	0.315
ChaGo-K-1	0.261
NCI-H3122	0.165
HOP-62	0.141
LU99A	0.165
BEN	0.616
HARA	0.169
HCC-78	0.832
NCI-H441	0.217
LCLC-97TM1	0.141
NCI-H2009	0.736
A-427	0.432
NCI-H460	0.0385
NCI-H1734	0.342
NCI-H520	0.443
NCI-H2405	0.595
SW 1573	0.44
201T	0.281
NCI-H1915	0.211
HCC-827	0.235
LXF-289	0.588
NCI-H2347	0.383
NCI-H650	0.479
CAL-12T	0.186
NCI-H1651	0.366
EPLC-272H	0.121

same assay, conditions: first compound 1 µM; main component drawn

Cell Line	relative viability
COR-L 105	0.573
LOU-NH91	0.271
ChaGo-K-1	0.24
NCI-H3122	0.166
HOP-62	0.128
LU99A	0.133
BEN	0.679
HARA	0.217
HCC-78	0.826
NCI-H441	0.244
LCLC-97TM1	0.0948
NCI-H2009	0.503
A-427	0.288
NCI-H460	0.0443
NCI-H1734	0.273
NCI-H520	0.446
NCI-H2405	0.408
SW 1573	0.225
201T	0.271
NCI-H1915	0.146
HCC-827	0.207
LXF-289	0.218
NCI-H2347	0.423
NCI-H650	0.34
CAL-12T	0.156
NCI-H1651	0.285
EPLC-272H	0.131

compound: COc1cc([C@@H]2c3cc4c(cc3[C@@H](O[C@@H]3O[C@@H]5CO[C@@H](C)O[C@H]5[C@H](O)[C@H]3O)[C@H]3COC(=O)[C@H]23)OCO4)cc(OC)c1O [Etoposide] + Cc1nc(Nc2ncc(C(=O)Nc3c(C)cccc3Cl)s2)cc(N2CCN(CCO)CC2)n1 [Dasatinib] (partner 0.075 µM); assay: as above; details: first compound 0.01 µM
Summary of the method: as §1

Cell Line	relative viability
COR-L 105	0.3
LOU-NH91	0.579
ChaGo-K-1	0.479
NCI-H3122	0.749
HOP-62	0.584
LU99A	0.427
BEN	0.353
HARA	0.263
HCC-78	0.435
NCI-H441	0.58
LCLC-97TM1	0.858
NCI-H2009	0.288
A-427	0.702
NCI-H460	0.432
NCI-H1734	0.415
NCI-H520	0.22
NCI-H2405	0.219
SW 1573	0.43
201T	0.639
NCI-H1915	0.31
HCC-827	0.243
LXF-289	0.209
NCI-H2347	0.365
NCI-H650	0.457
CAL-12T	0.345
NCI-H1651	0.282
EPLC-272H	0.373

same assay, conditions: first compound 0.03162 µM

Cell Line	relative viability
COR-L 105	0.345
LOU-NH91	0.601
ChaGo-K-1	0.59
NCI-H3122	0.775
HOP-62	0.676
LU99A	0.727
BEN	0.416
HARA	0.298
HCC-78	0.39
NCI-H441	0.677
LCLC-97TM1	0.943
NCI-H2009	0.313
A-427	0.818
NCI-H460	0.509
NCI-H1734	0.449
NCI-H520	0.239
NCI-H2405	0.23
SW 1573	0.525
201T	0.655
NCI-H1915	0.413
HCC-827	0.298
LXF-289	0.217
NCI-H2347	0.294
NCI-H650	0.472
CAL-12T	0.473
NCI-H1651	0.426
EPLC-272H	0.342

same assay, conditions: first compound 0.1 µM

Cell Line	relative viability
COR-L 105	0.273
LOU-NH91	0.492
ChaGo-K-1	0.51
NCI-H3122	0.112
HOP-62	0.492
LU99A	0.262
HARA	0.259
HCC-78	0.33
NCI-H441	0.398
LCLC-97TM1	0.933
NCI-H2009	0.218
A-427	0.435
NCI-H460	0.285
NCI-H1734	0.312
NCI-H520	0.181
NCI-H2405	0.239
SW 1573	0.212
201T	0.524
NCI-H1915	0.236
HCC-827	0.177
LXF-289	0.231
NCI-H2347	0.293
NCI-H650	0.342
CAL-12T	0.351
NCI-H1651	0.385
EPLC-272H	0.222

same assay, conditions: first compound 0.3162 µM

Cell Line	relative viability
COR-L 105	0.328
LOU-NH91	0.566
ChaGo-K-1	0.441
NCI-H3122	0.817
HOP-62	0.621
LU99A	0.395
BEN	0.304
HARA	0.23
HCC-78	0.334
NCI-H441	0.285
LCLC-97TM1	0.681
NCI-H2009	0.282
A-427	0.446
NCI-H460	0.132
NCI-H1734	0.436
NCI-H520	0.208
NCI-H2405	0.197
SW 1573	0.155
201T	0.548
NCI-H1915	0.326
HCC-827	0.279
LXF-289	0.206
NCI-H2347	0.255
NCI-H650	0.372
CAL-12T	0.396
NCI-H1651	0.189
EPLC-272H	0.354

same assay, conditions: first compound 1 µM

Cell Line	relative viability
COR-L 105	0.293
LOU-NH91	0.395
ChaGo-K-1	0.146
NCI-H3122	0.223
HOP-62	0.363
LU99A	0.142
BEN	0.351
HARA	0.181
HCC-78	0.152
NCI-H441	0.147
LCLC-97TM1	0.179
NCI-H2009	0.207
A-427	0.2
NCI-H460	0.0414
NCI-H1734	0.21
NCI-H520	0.269
NCI-H2405	0.199
SW 1573	0.0993
201T	0.477
NCI-H1915	0.286
HCC-827	0.188
LXF-289	0.0795
NCI-H2347	0.249
NCI-H650	0.215
CAL-12T	0.196
NCI-H1651	0.0972
EPLC-272H	0.245
